Earlier results as cited in patent US20020132296A1, “Human Ste20-like stress activated serine/threonine kinase” (priority 1997, published 2002).

What was measured:
[1] = system: LPS-stimulated macrophages

For `C[S+]([O-])c1ccc(-c2nc(-c3ccncc3)c(-c3ccc(F)cc3)[nH]2)cc1` (centres unmarked) [SB203580], the “production of TNF and IL-1” value [1] is given as “inhibit” and the “production of TNF, IL-6 and IL-8” value (TNF-stimulated HUVECs) is given as “inhibit”.
